According to patent US20210047324A1 (Aptinyx Inc., priority 2018, published 2021):
Read-outs that look alike come from different tables or passages of the source.

Assays:
[1] = IV pharmacokinetics in Sprague Dawley rats; format: in vivo; conditions: rat, 2 mg/kg, normal saline; for Vd: read-out: Vss
Description: Sprague Dawley rats were dosed intravenously using a normal saline formulation containing 2 mg/kg of the compounds identified in the below table. The table below summarizes the results of the IV pharmacokinetics.

[2] = Oral pharmacokinetics in Sprague Dawley rats (plasma, brain, CSF); format: in vivo; conditions: rat
Description: In another experiment, Sprague Dawley rats were dosed per os (oral gavage) using a normal saline formulation containing 10 mg/kg of the compounds identified in the table below. Plasma, brain, and CSF samples were analyzed at various time points over a 24 hour period. The table below summarizes the results of the oral pharmacokinetics, where the first three values (Tmax, Cmax and AUClast) are plasma values.

[3] = Plasma stability (Rat); format: in vitro ADME; conditions: after 60 minutes
Description: (§1) Plasma stability of disclosed compounds was investigated. The following table indicates the percent of compound remaining after 60 minutes.

[4] = target: T1, NMDAR2B (Homo sapiens, UniProt Q13224); assay: NMDAR agonist assay, [3H]MK-801 binding, NMDAR2B expressing HEK cell membranes; format: biochemical; conditions: 50 μM glutamate; for EC50: read-out: NMDAR2B B: log EC50 (converted); for Emax / NMDAR2B A: % maximal [3H]MK-801 binding relative to 1 mM glycine: relative to 1 mM glycine; for Emax: read-out: NMDAR2B A: % maximal [3H]MK-801 binding relative to 1 mM glycine
T1 construct: expressed in transfected cells; host or cells: HEK cells (membrane extract)
T1 sequence (Q13224 27-1484, species assumed, other chains not shown): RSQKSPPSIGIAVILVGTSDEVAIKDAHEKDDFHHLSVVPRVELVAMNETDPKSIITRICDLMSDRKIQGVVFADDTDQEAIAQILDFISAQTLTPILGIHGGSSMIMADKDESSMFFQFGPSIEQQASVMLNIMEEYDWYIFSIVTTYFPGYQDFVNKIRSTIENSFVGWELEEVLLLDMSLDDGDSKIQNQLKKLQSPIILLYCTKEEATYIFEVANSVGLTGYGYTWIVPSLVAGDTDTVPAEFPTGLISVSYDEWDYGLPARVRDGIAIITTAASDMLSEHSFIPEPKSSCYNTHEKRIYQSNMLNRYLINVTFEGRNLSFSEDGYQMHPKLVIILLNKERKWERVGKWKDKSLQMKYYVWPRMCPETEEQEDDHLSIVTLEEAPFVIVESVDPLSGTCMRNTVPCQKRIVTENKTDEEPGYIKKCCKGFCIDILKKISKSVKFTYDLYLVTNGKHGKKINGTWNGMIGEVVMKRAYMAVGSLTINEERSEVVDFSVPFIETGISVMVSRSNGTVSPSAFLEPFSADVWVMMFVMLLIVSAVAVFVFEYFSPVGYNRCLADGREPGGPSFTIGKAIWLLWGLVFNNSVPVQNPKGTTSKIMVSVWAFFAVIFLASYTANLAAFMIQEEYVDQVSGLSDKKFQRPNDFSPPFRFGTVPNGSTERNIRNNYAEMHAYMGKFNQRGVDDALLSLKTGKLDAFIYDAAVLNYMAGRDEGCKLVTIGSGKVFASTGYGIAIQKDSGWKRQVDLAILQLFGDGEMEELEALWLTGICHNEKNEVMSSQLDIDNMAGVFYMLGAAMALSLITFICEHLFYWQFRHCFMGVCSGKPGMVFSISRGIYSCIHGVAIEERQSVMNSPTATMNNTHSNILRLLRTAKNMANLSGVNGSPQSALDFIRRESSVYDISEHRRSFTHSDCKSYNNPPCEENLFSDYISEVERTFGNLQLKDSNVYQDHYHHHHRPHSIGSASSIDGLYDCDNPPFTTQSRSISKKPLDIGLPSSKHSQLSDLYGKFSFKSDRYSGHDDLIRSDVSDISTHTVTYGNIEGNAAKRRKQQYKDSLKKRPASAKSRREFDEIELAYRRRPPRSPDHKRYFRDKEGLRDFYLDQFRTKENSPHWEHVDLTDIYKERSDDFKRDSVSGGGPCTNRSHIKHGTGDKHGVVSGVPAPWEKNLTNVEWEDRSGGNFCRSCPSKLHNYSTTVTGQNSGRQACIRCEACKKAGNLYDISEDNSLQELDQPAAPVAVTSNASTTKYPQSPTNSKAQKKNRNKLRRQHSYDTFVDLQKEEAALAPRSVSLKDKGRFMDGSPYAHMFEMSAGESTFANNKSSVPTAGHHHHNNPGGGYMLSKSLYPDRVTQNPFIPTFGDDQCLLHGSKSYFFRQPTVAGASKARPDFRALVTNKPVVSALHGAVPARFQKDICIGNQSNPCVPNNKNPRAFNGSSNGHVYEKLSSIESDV
Procedure, shortened: (§2)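 Membranes from HEK cells (300 μg protein) preincubated 15 min with 50 μM glutamate plus compound (1×10^−15–1×10^−7 M) or 1 mM glycine, then with 0.3 μCi [3H]MK-801 for 15 min at 25° C. (nonequilibrium); filter-bound DPM, baseline-subtracted, expressed as % of 1 mM glycine; EC50 and % maximum from three-parameter fit.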

[5] = Microsomal stability (Human); format: in vitro ADME; conditions: after 60 minutes
Description: (§3) Microsomal stability of disclosed compounds was investigated. The following table indicates the percent of compound remaining after 60 minutes.

[6] = Microsomal stability (Rat); format: in vitro ADME; conditions: after 60 minutes
Description: as §3

[7] = target: T2, NMDAR2A (Homo sapiens, UniProt Q12879); assay: NMDAR agonist assay, [3H]MK-801 binding, NMDAR2A expressing HEK cell membranes; format: biochemical; conditions: 50 μM glutamate; for EC50: read-out: NMDAR2A B: log EC50 (converted); for Emax: 0.25 h, read-out: NMDAR2A A: % maximal [3H]MK-801 binding relative to 1 mM glycine; for Emax / NMDAR2A A: % maximal [3H]MK-801 binding relative to 1 mM glycine: relative to 1 mM glycine
T2 construct: expressed in transfected cells; host or cells: HEK cells (membrane extract)
T2 sequence (Q12879 23-1464, species assumed, other chains not shown): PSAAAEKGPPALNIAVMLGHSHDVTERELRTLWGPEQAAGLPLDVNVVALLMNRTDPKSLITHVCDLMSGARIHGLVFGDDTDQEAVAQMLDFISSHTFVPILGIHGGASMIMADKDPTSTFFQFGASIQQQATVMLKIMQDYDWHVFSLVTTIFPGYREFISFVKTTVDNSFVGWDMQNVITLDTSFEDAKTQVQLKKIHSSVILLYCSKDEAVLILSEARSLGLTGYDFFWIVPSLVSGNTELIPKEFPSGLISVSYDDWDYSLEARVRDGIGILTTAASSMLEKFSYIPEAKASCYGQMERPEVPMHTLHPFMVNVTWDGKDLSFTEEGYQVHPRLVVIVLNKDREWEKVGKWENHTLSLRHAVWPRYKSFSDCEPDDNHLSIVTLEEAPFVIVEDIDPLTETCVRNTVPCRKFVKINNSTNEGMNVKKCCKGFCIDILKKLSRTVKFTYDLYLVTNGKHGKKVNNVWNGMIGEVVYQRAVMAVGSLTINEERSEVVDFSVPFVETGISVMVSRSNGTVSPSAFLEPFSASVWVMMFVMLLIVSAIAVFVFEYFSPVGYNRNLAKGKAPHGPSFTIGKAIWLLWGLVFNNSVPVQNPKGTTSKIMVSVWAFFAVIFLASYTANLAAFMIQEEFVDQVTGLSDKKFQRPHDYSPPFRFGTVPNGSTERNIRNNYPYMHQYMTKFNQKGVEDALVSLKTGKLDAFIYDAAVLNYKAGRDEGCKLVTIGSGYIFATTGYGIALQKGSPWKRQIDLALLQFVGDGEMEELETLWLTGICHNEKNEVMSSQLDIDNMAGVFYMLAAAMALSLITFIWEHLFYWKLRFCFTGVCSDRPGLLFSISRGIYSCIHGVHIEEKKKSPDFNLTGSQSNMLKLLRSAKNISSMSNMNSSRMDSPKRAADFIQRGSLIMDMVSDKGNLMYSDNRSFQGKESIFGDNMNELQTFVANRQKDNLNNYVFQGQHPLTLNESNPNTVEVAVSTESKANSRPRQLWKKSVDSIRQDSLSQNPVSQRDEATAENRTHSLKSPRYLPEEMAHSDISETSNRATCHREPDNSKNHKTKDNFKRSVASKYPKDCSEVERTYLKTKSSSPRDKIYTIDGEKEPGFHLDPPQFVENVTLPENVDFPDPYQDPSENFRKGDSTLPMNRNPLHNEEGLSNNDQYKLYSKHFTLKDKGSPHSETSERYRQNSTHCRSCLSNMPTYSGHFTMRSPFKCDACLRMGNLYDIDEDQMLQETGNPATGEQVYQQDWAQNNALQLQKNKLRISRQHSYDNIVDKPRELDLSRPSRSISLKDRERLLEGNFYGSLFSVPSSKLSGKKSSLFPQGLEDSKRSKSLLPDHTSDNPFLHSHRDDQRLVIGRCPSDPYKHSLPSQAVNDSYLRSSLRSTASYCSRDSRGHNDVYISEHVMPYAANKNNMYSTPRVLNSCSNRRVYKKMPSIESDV
Procedure, shortened: as §2

[8] = Plasma stability (Human); format: in vitro ADME; conditions: after 60 minutes
Description: as §1

[9] = Sprague-Dawley, in vivo, iv, read-out: Cmax
[10] = Sprague-Dawley, po, per os, 10 mg/kg, plasma, read-out: Tmax
[11] = Sprague-Dawley, plasma, po, 10 mg/kg, per os
[12] = Sprague-Dawley, plasma, po, 10 mg/kg, per os 10 mg/kg
[13] = Sprague-Dawley, plasma, po, 10 mg/kg, per os, 10 mg/kg, plasma, read-out: Cmax

Row | Compound | AUC(0-t) ([1]; Sprague-Dawley, in vivo, iv) | clearance ([1]; Sprague-Dawley, in vivo, iv) | half-life ([1]; Sprague-Dawley, in vivo, iv) | Cmax [1, 9] | Vd ([1]; Sprague-Dawley, in vivo, iv) | Tmax [2, 10] | AUC(0-t) [2, 11] | bioavailability [2, 12] | Cmax [2, 13] | CSF Cmax ([2]; per os, 10 mg/kg) | Brain Cmax ([2]; per os, 10 mg/kg) | Plasma (Rat): percent of compound remaining [3] | EC50 [4] | Emax [4] | Microsomal (Human): percent of compound remaining [5] | Microsomal (Rat): percent of compound remaining [6] | EC50 [7] | Emax [7] | Plasma (Human): percent of compound remaining [8] | NMDAR2A A: % maximal [3H]MK-801 binding relative to 1 mM glycine [7] | other results
1 | CN1CC=CCC2(CCCN2Cc2ccccc2)C1=O (single isomer, unassigned) [GT-1, 1-benzyl-7-methyl-1,7-diazaspiro[4.6]undec-9-en-6-one] | 210 ng·h/mL | 157 mL/min/kg | 0.66 h | 421 ng/mL | 6.5 L/kg | 0.58 h | 9.16 ng·h/mL | 1% | 23.3 ng/mL | 0 ng/mL | 0 ng/mL | 96% | < 1 nM | < 100% | 72% | 3% | < 1 nM | < 100% | 101% | – | –
2 | O=C1NCCCCC12CCCCN2 (single isomer, unassigned) [AZ, 1,8-diazaspiro[5.6]dodecan-7-one] | 15400 ng·h/mL | 2.17 mL/min/kg | 4.25 h | 17900 ng/mL | 0.17 L/kg | 1 h | 74300 ng·h/mL | 97% | 29100 ng/mL | 5343.89 ng/mL | 8074.7 ng/mL | 101% | < 1 nM | < 100% | 92% | 91% | < 1 nM | < 100% | 101% | – | –
3 | O=C1NCCCCC12CCCNC2 (single isomer, unassigned) [CF, 2,8-diazaspiro[5.6]dodecan-7-one] | 1110 ng·h/mL | 29.9 mL/min/kg | 1.8 h | 1990 ng/mL | 2.85 L/kg | 2 h | 1830 ng·h/mL | 33% | 556 ng/mL | 51.64 ng/mL | 48.22 ng/mL | 91% | < 1 nM | < 100% | 91% | 88% | < 1 nM | < 100% | 107% | – | –
4 | CC(C)CN1CCCC12CC=CCNC2=O (single isomer, unassigned) [GI-2, 1-isobutyl-1,7-diazaspiro[4.6]undec-9-en-6-one] | 326 ng·h/mL | 101 mL/min/kg | 0.32 h | 976 ng/mL | 2.25 L/kg | 0.42 h | 150 ng·h/mL | 9% | 132 ng/mL | 205.53 ng/mL | 97.39 ng/mL | 104% | < 1 nM | – | 114% | 102% | < 1 nM | – | 99% | + (<100%=+) | NMDAR2B A: % maximal [3H]MK-801 binding relative to 1 mM glycine [4]: + (<100%=+)
5 | O=C1NCCCC12CCCCN2 (single isomer, unassigned) [AY, 1,8-diazaspiro[5.5]undecan-7-one] | – | – | – | – | – | – | – | – | – | 701.8 ng/mL | 799.5 ng/mL | 107% | < 1 nM | – | 97% | 114% | < 1 nM | – | 104% | + (<100%=+) | AUClast [1]: 1658.09 ng·h/mL; Cl [1]: 20.15 mL/min/kg; Cmax [1]: 1552.63 ng/mL; T1/2 [1]: 9.65 h; Vss [1]: 3.88 L/kg; % F ([2]; per os 10 mg/kg): 79%; AUC(0-last) ([2]; per os, 10 mg/kg, plasma): 6528.55 ng·h/mL; Cmax ([2]; per os, 10 mg/kg, plasma): 3038.07 ng/mL; Tmax ([2]; per os, 10 mg/kg, plasma): 1 h; NMDAR2B A: % maximal [3H]MK-801 binding relative to 1 mM glycine [4]: + (<100%=+)
6 | CC(C)C(=O)N1CCC2(CCCN2C(=O)C(C)C)C1=O (single isomer, unassigned) [GU-1, 1,1′-(6-oxo-1,7-diazaspiro[4.4]nonane-1,7-diyl)bis(2-methylpropan-1-one)] | 1140 ng·h/mL | 29.3 mL/min/kg | 0.18 h | 5850 ng/mL | 0.36 L/kg | 0.25 h | 2100 ng·h/mL | 37% | 4620 ng/mL | 0 ng/mL | 0 ng/mL | 89% | < 1 nM | < 100% | 96% | 94% | – | – | 82% | 0% | –
7 | O=C1NCCCC12CCCCN2 (single isomer, unassigned) [AX, 1,8-diazaspiro[5.5]undecan-7-one] | 1360 ng·h/mL | 24.4 mL/min/kg | 9.15 h | 1420 ng/mL | 3.31 L/kg | 1 h | 6680 ng·h/mL | 98% | 2560 ng/mL | 342.07 ng/mL | 1547.36 ng/mL | 99% | ≥ 1 nM | < 100% | 93% | 120% | < 1 nM | < 100% | 105% | – | –
